Laboratory results as given in EP4725956A1, “MODIFIED POLYPEPTIDE AND USE THEREOF IN FIELD OF ANALGESIA” (Nanjing Anji Biotechnology Co., Ltd., priority 2023, dated 2024).
Positions of bridges follow the written chain, without caps; N, C: chain ends. Non-standard residues stand in square brackets, D forms with d. Residues, ends and D or L forms follow the SMILES beside them.

What was measured:
[1] = test system: rat CCI model; test: Rat CCI (chronic constriction injury) model (Example 9); format: in vivo; conditions: 1 mg/kg s.c. (AJ003; AJ003-36 medium dose)
Description: Neuropathic pain has many types, and animal models can simulate clinical neuropathic pain. Common SD rat sciatic nerve neuropathic pain models include CCI (Chronic Constriction Injury), SNI (Spared Nerve Injury), SNL (Spinal Nerve Ligation), and CCD (using stainless steel wire through the intervertebral foramen to fix and compress the dorsal root ganglion). Among them, the CCI model is widely used to study neuropathic pain, providing a basis for further research on mechanisms and strategies for nerve injury repair (Wen Xiaojun, Medical Information, Jan. 2018, Vol. 31, No.1). In this example, the CCI model was employed.
Except for the control group, the remaining SD rats were anesthetized via intraperitoneal injection of 10% chloral hydrate saline solution at a dose of 0.3 mL per 100 g body weight, and surgical modeling was performed. The right hind limb skin was carefully incised, muscles were separated, and the sciatic nerve was ligated three times using 4-0 surgical silk, spaced 1 mm apart. Muscles and skin were sutured, and antibiotics were applied to the wound to prevent infection. […] Approximately 10 days post-surgery, plantar pain thresholds were measured three times for each rat, and the average value was calculated. Rats were randomly assigned to groups based on pain thresholds. Drug administration was performed according to Table 8, and plantar pain thresholds were measured at 2 h, 4 h, 6 h, and 8 h after administration.

[2] = test system: mouse oxaliplatin-induced acute chemotherapy pain model; test: Mouse oxaliplatin chemotherapy pain model, different doses (Example 7); format: in vivo; conditions: 2 mg/kg s.c. (AJ003; AJ003-36 medium dose)
Description: Oxaliplatin was dissolved in 5% glucose solution to a concentration of 1 mg/mL. For model induction, each male C57 mouse (Hangzhou Ziyuan Experimental Animal Technology Co., Ltd.) received a single intraperitoneal injection of oxaliplatin at 10 mg/kg. Mice in the negative control or blank control group received 5% glucose solution. Approximately one week after model induction, mechanical pain thresholds of the mice were measured three times per mouse, and the average value was calculated. Mice were then randomly assigned to groups based on their pain thresholds. Drug administration was carried out according to the dosing schedule shown in Table 6, with a single dose per mouse. Mechanical pain thresholds were measured at 0.5, 1, 2, 4, 6, and 8 h post-dose. […] Table 6 Dosing Scheme for Oxaliplatin Chemotherapy Pain Model

For CC(C)C[C@H](NC(=O)[C@@H](NC(=O)[C@H]1CSSC[C@H](NC(=O)[C@H](CO)NC(=O)CN)C(=O)N[C@@H](CO)C(=O)N[C@@H]([C@@H](C)O)C(=O)N2CCC[C@H]2C(=O)N2CCC[C@H]2C(=O)N[C@@H](CO)C(=O)N1)C(C)C)C(=O)N[C@@H](Cc1ccc(O)cc1)C(=O)N[C@@H](CO)C(=O)O [AJ003, GSCSTPPS-(D-Cys)-VLYS (disulfide bond between positions 3 and 9)] (H-GSCSTPPS[dC]VLYS-OH; disulfide 3-9), the “analgesic activity compared with the model group (mechanical pain threshold)” value ([1]; Day 1 of dosing, 2 h and 4 h) was “significant analgesic activity”, the “analgesic activity compared with the model group (mechanical pain threshold)” value ([1]; Day 1 of dosing, 6 h) was “no significant difference” and the “analgesic activity compared with the model group (mechanical pain threshold)” value ([1]; Day 1 of dosing, 8 h) was “not significantly different”. The “analgesic activity compared with the model group (mechanical pain threshold)” value ([1]; Day 4 of dosing, 2 h and 4 h) was “significant analgesic activity”, the “analgesic activity compared with the model group (mechanical pain threshold)” value ([1]; Day 4 of dosing, 6 h and 8 h) was “no longer significant” and the “analgesic activity compared with the model group (mechanical pain threshold)” value ([1]; Day 7 of dosing, 2 h and 4 h) was “significant analgesic activity”. The “analgesic activity compared with the model group (mechanical pain threshold)” value ([1]; Day 7 of dosing, 6 h) was “no significant effect”, the “analgesic activity compared with the model group (mechanical pain threshold)” value ([1]; Day 7 of dosing, 8 h) was “not significant” and the “analgesic activity compared with the model group (mechanical pain threshold)” value ([1]; Day 10 of dosing, 2 h and 4 h) was “significant analgesic activity”. For the same molecule, the “analgesic activity compared with the model group (mechanical pain threshold)” value ([1]; Day 10 of dosing, 6 h) was “no significant effect”, the “analgesic activity compared with the model group (mechanical pain threshold)” value ([1]; Day 10 of dosing, 8 h) was “not significant” and the “analgesic activity compared with the model group (mechanical pain threshold)” value ([1]; Day 14 of dosing, 2 h and 4 h) was “significant analgesic activity”. For the same molecule, the “analgesic activity compared with the model group (mechanical pain threshold)” value ([1]; Day 14 of dosing, 6 h) was “no significant effect”, the “analgesic activity compared with the model group (mechanical pain threshold)” value ([1]; Day 14 of dosing, 8 h) was “not significant” and the “analgesic activity compared with the model group (mechanical pain threshold)” value ([2]; single dose, 0.5, 1, 2 and 4 h post-dose) was “significant analgesic activity”. The “analgesic activity compared with the model group (mechanical pain threshold)” value ([2]; single dose, 6 h post-dose) was “no significant effect” and the “analgesic activity compared with the model group (mechanical pain threshold)” value ([2]; single dose, 8 h post-dose) was “no significant effect”.
